Data taken from paper PMC7789494 (Microbial Cell Factories, 2021).

Target: T1, PcCDHTr (Phanerodontia chrysosporium, UniProt Q01738)
T1 construct: gene CDH-1; full two-domain flavocytochrome, native signal peptide (cleaved), untagged, secreted by Trichoderma reesei delta-xyr1; 83 kDa by SDS-PAGE
Experiment: TCA precipitation, released FAD by A450
Assay type: binding
Details: co-purified cofactor

T1 sequence (Q01738 19-773): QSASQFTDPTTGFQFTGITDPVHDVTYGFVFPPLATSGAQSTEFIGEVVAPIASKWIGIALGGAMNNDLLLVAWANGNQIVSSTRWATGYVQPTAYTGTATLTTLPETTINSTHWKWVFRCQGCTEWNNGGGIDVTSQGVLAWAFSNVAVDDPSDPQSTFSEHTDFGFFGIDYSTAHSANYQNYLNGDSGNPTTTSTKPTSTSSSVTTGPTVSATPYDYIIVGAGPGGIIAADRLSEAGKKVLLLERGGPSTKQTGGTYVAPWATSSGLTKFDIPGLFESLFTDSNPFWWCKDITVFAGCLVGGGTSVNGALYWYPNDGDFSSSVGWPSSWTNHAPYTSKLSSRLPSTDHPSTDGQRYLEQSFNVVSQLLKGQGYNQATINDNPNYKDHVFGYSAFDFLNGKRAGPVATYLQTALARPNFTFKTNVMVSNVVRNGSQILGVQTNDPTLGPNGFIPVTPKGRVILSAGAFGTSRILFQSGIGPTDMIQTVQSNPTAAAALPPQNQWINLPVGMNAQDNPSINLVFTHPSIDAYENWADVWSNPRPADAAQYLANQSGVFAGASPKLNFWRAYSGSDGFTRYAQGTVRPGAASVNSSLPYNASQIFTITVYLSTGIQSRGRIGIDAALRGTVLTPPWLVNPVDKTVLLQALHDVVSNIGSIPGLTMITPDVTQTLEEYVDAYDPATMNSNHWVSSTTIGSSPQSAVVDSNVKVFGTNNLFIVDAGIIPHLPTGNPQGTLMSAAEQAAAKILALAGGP

FAD occupancy: 70%
SMILES: Cc1cc2nc3c(=O)[nH]c(=O)nc-3n(C[C@H](O)[C@H](O)[C@H](O)COP(=O)(O)OP(=O)(O)OC[C@H]3O[C@@H](n4cnc5c(N)ncnc54)[C@H](O)[C@@H]3O)c2cc1C [FAD]
